Legend:
[1] = tested on: Gardner lymphosarcoma (GLS); experiment: Gardner lymphosarcoma (GLS) transplanted in mice, tumor inhibition or prolongation of survival; assay type: in vivo
Description: (§1) The compounds of this invention and those preparable by the process disclosed herein are active against transplanted tumors in mice in vivo.
(§2) The following table--Table 1--gives the results of experiments in which mice bearing transplanted Gardner lymphosarcoma (GLS), C3 H mammary tumor, B16 melanoma, P 1534(J) leukemia, P388 leukemia or 755 adenocarcinoma were treated with a compound of this invention. In the table, column 1 gives the name of the compound; column 2, the tumor system employed; column 3, the dosage schedule and column 4, the percent inhibition of tumor growth or increased life span.

[2] = tested on: B16 melanoma; experiment: B16 melanoma transplanted in mice, tumor inhibition or prolongation of survival; assay type: in vivo
Description: as §1, §2

[3] = tested on: P388 leukemia; experiment: P388 leukemia transplanted in mice, tumor inhibition or prolongation of survival; assay type: in vivo
Description: as §1, §2

[4] = tested on: C3 H mammary tumor; experiment: C3H mammary tumor transplanted in mice, tumor inhibition or prolongation of survival; assay type: in vivo
Description: as §1, §2

[5] = tested on: P 1534(J) leukemia; experiment: P 1534(J) leukemia transplanted in mice, tumor inhibition or prolongation of survival; assay type: in vivo; conditions: P1534(J)
Description: as §1, §2

[6] = tested on: 755 adenocarcinoma; experiment: 755 adenocarcinoma transplanted in mice, tumor inhibition or prolongation of survival; assay type: in vivo
Description: as §1, §2

[7] = tested on: leukemias; conditions: clinical trial in humans; cited from earlier work

CCC1(O)CC2CN(CCc3c([nH]c4ccccc34)C(C(=O)OC)(c3cc4c(cc3OC)N(C)C3C(O)(C(=O)NCCSSCCNC(=O)C5(O)C(O)C6(CC)C=CCN7CCC8(c9cc(C%10(C(=O)OC)CC%11CN(CCc%12c%10[nH]c%10ccccc%12%10)CC(O)(CC)C%11)c(OC)cc9N(C)C58)C76)C(O)C5(CC)C=CCN6CCC43C65)C2)C1 (stereo not drawn) [bis[β-(4-Desacetyl VLB C-3 carboxamido)ethyl]disulfide disulfate]
Percent Inhibition or Prolongation of Survival Time ([1]; 0.4 mg./kg. × 9): 43-100% | Percent Inhibition or Prolongation of Survival Time ([1]; 0.9 mg./kg. × 3): 34-46% | Percent Inhibition or Prolongation of Survival Time ([1]; 1.2 mg./kg. × 3): 62-93% | Percent Inhibition or Prolongation of Survival Time ([2]; B16, 0.6 mg./kg. × 3): 118% | number of indefinite survivors ([2]; B16, 0.6 mg./kg. × 3): 7 | Percent Inhibition or Prolongation of Survival Time ([2]; B16, 0.9 mg./kg. × 3): 86% | number of indefinite survivors ([2]; B16, 0.9 mg./kg. × 3): 7 | Percent Inhibition or Prolongation of Survival Time ([2]; B16, 1.2 mg./kg. × 3): 24% | number of indefinite survivors ([2]; B16, 1.2 mg./kg. × 3): 3 | Percent Inhibition or Prolongation of Survival Time ([3]; P388, 0.6 mg./kg. × 3): 33-44% | Percent Inhibition or Prolongation of Survival Time ([3]; P388, 0.9 mg./kg. × 3): 39-47% | Percent Inhibition or Prolongation of Survival Time ([3]; P388, 1.2 mg./kg. × 3): 53-61% | Percent Inhibition or Prolongation of Survival Time ([4]; 0.9 mg./kg. × 3): 31-36% | Toxic (Percent Inhibition or Prolongation of Survival Time) ([4]; 1.2 mg./kg. × 3): Toxic | Percent Inhibition or Prolongation of Survival Time ([5]; 0.6 mg./kg. × 3): 20-39% | Percent Inhibition or Prolongation of Survival Time ([5]; 0.9 mg./kg. × 3): 50-53% | Percent Inhibition or Prolongation of Survival Time ([5]; 1.2 mg./kg. × 3): 62% | Toxic (Percent Inhibition or Prolongation of Survival Time) ([5]; 1.2 mg./kg. × 3): Toxic | Percent Inhibition or Prolongation of Survival Time ([5]; 1.6 mg./kg. × 3): 90-99% | Percent Inhibition or Prolongation of Survival Time ([6]; 755, 0.6 mg./kg. × 3): 29-34% | Percent Inhibition or Prolongation of Survival Time ([6]; 755, 0.9 mg./kg. × 3): 34-54% | Percent Inhibition or Prolongation of Survival Time ([6]; 755, 1.6 mg./kg. × 3): 60%

CCC1(O)CC2CN(CCc3c([nH]c4ccccc34)C(C(=O)OC)(c3cc4c(cc3OC)N(C)C3C(O)(C(=O)NCCCCNC(=O)C5(O)C(O)C6(CC)C=CCN7CCC8(c9cc(C%10(C(=O)OC)CC%11CN(CCc%12c%10[nH]c%10ccccc%12%10)CC(O)(CC)C%11)c(OC)cc9N(C)C58)C76)C(O)C5(CC)C=CCN6CCC43C65)C2)C1 (stereo not drawn) [1,4-bis(4-Desacetyl VLB C-3 carboxamido)butane disulfate]
Percent Inhibition or Prolongation of Survival Time ([1]; 0.4 mg./kg. × 9): 40%

CCC1(O)CC2CN(CCc3c([nH]c4ccccc34)C(C(=O)OC)(c3cc4c(cc3OC)N(C)C3C(O)(C(=O)NCC[Se][Se]CCNC(=O)C5(O)C(O)C6(CC)C=CCN7CCC8(c9cc(C%10(C(=O)OC)CC%11CN(CCc%12c%10[nH]c%10ccccc%12%10)CC(O)(CC)C%11)c(OC)cc9N(C)C58)C76)C(O)C5(CC)C=CCN6CCC43C65)C2)C1 (stereo not drawn) [bis[β-(4-Desacetyl VLB C-3 carboxamido)ethyl]diselenide disulfate]
Percent Inhibition or Prolongation of Survival Time ([1]; 1.5 mg./kg. × 3): 29% | Percent Inhibition or Prolongation of Survival Time ([1]; 2.0 mg./kg. × 3): 57% | Percent Inhibition or Prolongation of Survival Time ([1]; 2.5 mg./kg. × 3): 72% | Percent Inhibition or Prolongation of Survival Time ([4]; 1.5 mg./kg. × 3): 56% | Percent Inhibition or Prolongation of Survival Time ([4]; 2.0 mg./kg. × 3): 72% | Toxic (Percent Inhibition or Prolongation of Survival Time) ([4]; 2.5 mg./kg. × 3): Toxic | Percent Inhibition or Prolongation of Survival Time ([5]; 1.2 mg./kg. × 3): 21% | Percent Inhibition or Prolongation of Survival Time ([5]; 1.8 mg./kg. × 3): 66% | Percent Inhibition or Prolongation of Survival Time ([6]; 755, 0.6 mg./kg. × 3): 26-32% | Percent Inhibition or Prolongation of Survival Time ([6]; 755, 0.9 mg./kg. × 3): 21-62% | Percent Inhibition or Prolongation of Survival Time ([6]; 755, 1.2 mg./kg. × 3): 31-42% | Percent Inhibition or Prolongation of Survival Time ([6]; 755, 1.8 mg./kg. × 3): 89%

CCC1(O)CC2CN(CCc3c([nH]c4ccccc34)C(C(=O)OC)(c3cc4c(cc3OC)N(C)C3C(O)(C(=O)NCCOCCNC(=O)C5(O)C(O)C6(CC)C=CCN7CCC8(c9cc(C%10(C(=O)OC)CC%11CN(CCc%12c%10[nH]c%10ccccc%12%10)CC(O)(CC)C%11)c(OC)cc9N(C)C58)C76)C(O)C5(CC)C=CCN6CCC43C65)C2)C1 (stereo not drawn) [bis[β -(4-Desacetyl VLB C-3 carboxamido)ethyl]ether disulfate]
Percent Inhibition or Prolongation of Survival Time ([1]; 0.4 mg./kg. × 9): 62% | Percent Inhibition or Prolongation of Survival Time ([3]; P388, 0.6 mg./kg. × 3): 53% | Percent Inhibition or Prolongation of Survival Time ([3]; P388, 0.9 mg./kg. × 3): 77% | Percent Inhibition or Prolongation of Survival Time ([3]; P388, 1.2 mg./kg. × 3): 85% | Toxic (Percent Inhibition or Prolongation of Survival Time) ([3]; P388, 1.8 mg./kg. × 3): Toxic

CC[C@]1(O)C[C@@H]2CN(CCc3c([nH]c4ccccc34)[C@@](C(=O)OC)(c3cc4c(cc3OC)N(C)[C@H]3[C@@](O)(C(N)=O)[C@H](O)[C@]5(CC)C=CCN6CC[C@]43[C@@H]65)C2)C1 [vindesine, 4-desacetyl VLB C-3 carboxamide]
effectiveness against leukemias [7]: effective against leukemias including vincristine-resistant leukemias | neurotoxicity compared with vincristine [7]: less neurotoxicity than does vincristine

Source: patent US4199504A (priority 1978, dated 1980)
